From patent US20210163453A1, “DERIVATIVES OF PAPAVERINE THAT ARE EFFECTIVE HYPOXIC TUMOR RADIOSENSITIZERS” (Ohio State Innovation Foundation, priority 2018, published 2021)
“Also recorded” adds a separate entry of the source.

System: EO771 or A549 flank tumors
Test: FD-NIRS tissue oxygenation in tumor-bearing mice
Assay type: in vivo
Experimental: In vivo oxygenation measurements. All animal experiments were performed according to protocols approved by institutional IACUC review, with daily veterinarian observation. 2×10^6 EO771 or 5×10^6 A549 cells were injected s.c. into the flanks of 6-week old female immunocompromised nu/nu mice. Caliper measurements of opposing diameters were used to calculate the tumor volumes. Upon reaching […], the animals were anesthetized by inhalation of 1.5% isoflurane and tumor and thigh muscle oxygenation was measured with NIRS optical probe for 30 minutes. Once the baseline oxygenation was established, the animals were injected with either 2 mg per kg of body weight of papaverine hydrochloride or saline by tail vein. Tissue oxygenation was measured for 120 minutes. Obtained oxygenation values were normalized to time of injection and average of 5 traces per treatment averaged. Error bars represent the standard deviation.
Frequency-domain near-infrared spectroscopy (FD-NIRS) can noninvasively quantify tissue hemoglobin concentration (THb) and oxygenation (SO2) in real time. This technology uses light in the 700-800 nm wavelength because it has reasonably good tissue penetration (nominally 1-2 cm in depth). A FD-NIRS system with a novel side firing probe to measure changes in tumor oxygenation in response to pharmacological intervention was developed and used in this example. This example has generated in vivo data showing that papaverine can increase oxygenation in xenografted tumors in mice.
The FD-NIRS instrument consists of a network analyzer as the radio frequency (RF) source and phase-sensitive detection system, a 1×4 RF switch, a 4×2 optical switch, a multi-channel laser diode controller, four laser diodes (654, 779, 805 and 847 nm) installed in mounts with a bias-T, an avalanche photodiode (APD) module, and a laptop computer loaded with custom software. The surface probe consists of two side-firing source fibers (200/220/240 µm, NA=0.22) and a single side-firing detection fiber (600/660/710 µm, NA=0.22), providing two source-detector separations (SDSs) of 5 and 10 mm, respectively. The fiber tips are polished to a […] and coated with a mirror to create a light path perpendicular to the fiber. All the fiber tips are epoxied into a V-groove on a thin Delrin plate (biocompatible) so that it can be easily attached to the skin surface above a tumor. The two SDSs allow elimination of artifacts due to instrument response and the skin effects, while providing a penetration depth around 10-15 mm in typical tissue.
The FD-NIRS instrument launches intensity-modulated continuous wave lasers into the tissue and collects the amplitude-attenuated and phase-shifted diffuse reflectance from the tissue at the same frequency of the incident light, both through the side-firing probe. […]

## COc1ccc(Cc2nccc3cc(OC)c(OC)cc23)cc1OC [PPV, papaverine]
2 mg/kg by tail vein, within first 30-45 minutes
  tumor oxygenation: significantly increased the oxygenation; also recorded: statistically significant
2 mg/kg i.v.
  oxygenation of normal thigh muscle: no significant change
2 mg/kg i.v., 30 min post injection
  maximum tumor oxygenation above baseline: 1.35-1.45 × above baseline
2 mg/kg i.v., listed as papaverine
  oxygenation of normal thigh muscle: no change was detected
